Compound in one test: O=[As]([O-])(O)O.[K+] [potassium arsenate]
The test is described as follows: thermal stability z-score vs DMSO; higher = more thermally stabilized by treatment. As to conditions: HeLa; arsenate concentration 1 mM. As for the experimental part:
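Cellular thermal proteome profiling in HeLa cells treated with 1 mM arsenate for 1 h (DMSO pretreatment), heated to ten temperatures (37-66.3 °C). Soluble protein was quantified by TMT mass spectrometry relative to DMSO controls; the thermal stability score was transformed to a z-score; mean of n = 3 experiments.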

Compound in the next test: NC(=O)CCCCC1CCSS1 [lipoamide]
The test is described as above. The note with it: HeLa, lipoamide concentration 100 µM. Here is the method:
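Cellular thermal proteome profiling in HeLa cells. Cells were treated with 100 µM lipoamide for 1 h, with or without 1 mM arsenate for a further 1 h, then heated to ten temperatures (37-66.3 °C), and soluble protein was quantified by TMT mass spectrometry relative to 0.1% DMSO controls. The thermal stability score (sum of log2 fold changes minus the abundance score) was transformed to a z-score; mean of n = 3 experiments.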

Where [1] appears, read: arsenate co-treatment: 1 mM arsenate 1 h.
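Further: each temperature applied for 3 min, abundance score taken as mean log2 fold change at the two lowest temperatures, z-score obtained by mean subtraction and division by SD.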

Chain of UniProt Q5T4B2 (Q5T4B2 whole entry): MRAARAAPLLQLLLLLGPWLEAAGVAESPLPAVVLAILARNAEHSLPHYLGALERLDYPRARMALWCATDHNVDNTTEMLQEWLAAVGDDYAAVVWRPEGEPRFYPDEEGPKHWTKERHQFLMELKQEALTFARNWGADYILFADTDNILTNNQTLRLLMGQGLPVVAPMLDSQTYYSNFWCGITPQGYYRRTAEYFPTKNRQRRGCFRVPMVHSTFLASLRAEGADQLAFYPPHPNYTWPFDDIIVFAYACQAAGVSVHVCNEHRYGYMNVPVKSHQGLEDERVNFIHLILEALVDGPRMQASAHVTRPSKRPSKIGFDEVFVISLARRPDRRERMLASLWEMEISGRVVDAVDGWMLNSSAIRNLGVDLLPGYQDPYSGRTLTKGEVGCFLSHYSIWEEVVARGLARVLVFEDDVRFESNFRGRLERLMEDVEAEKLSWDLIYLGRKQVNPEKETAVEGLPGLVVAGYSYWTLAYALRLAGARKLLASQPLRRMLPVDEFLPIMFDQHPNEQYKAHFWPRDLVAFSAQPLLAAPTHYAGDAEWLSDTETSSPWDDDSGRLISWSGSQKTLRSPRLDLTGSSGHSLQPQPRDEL
Chain of UniProt Q14839 (Q14839 whole entry): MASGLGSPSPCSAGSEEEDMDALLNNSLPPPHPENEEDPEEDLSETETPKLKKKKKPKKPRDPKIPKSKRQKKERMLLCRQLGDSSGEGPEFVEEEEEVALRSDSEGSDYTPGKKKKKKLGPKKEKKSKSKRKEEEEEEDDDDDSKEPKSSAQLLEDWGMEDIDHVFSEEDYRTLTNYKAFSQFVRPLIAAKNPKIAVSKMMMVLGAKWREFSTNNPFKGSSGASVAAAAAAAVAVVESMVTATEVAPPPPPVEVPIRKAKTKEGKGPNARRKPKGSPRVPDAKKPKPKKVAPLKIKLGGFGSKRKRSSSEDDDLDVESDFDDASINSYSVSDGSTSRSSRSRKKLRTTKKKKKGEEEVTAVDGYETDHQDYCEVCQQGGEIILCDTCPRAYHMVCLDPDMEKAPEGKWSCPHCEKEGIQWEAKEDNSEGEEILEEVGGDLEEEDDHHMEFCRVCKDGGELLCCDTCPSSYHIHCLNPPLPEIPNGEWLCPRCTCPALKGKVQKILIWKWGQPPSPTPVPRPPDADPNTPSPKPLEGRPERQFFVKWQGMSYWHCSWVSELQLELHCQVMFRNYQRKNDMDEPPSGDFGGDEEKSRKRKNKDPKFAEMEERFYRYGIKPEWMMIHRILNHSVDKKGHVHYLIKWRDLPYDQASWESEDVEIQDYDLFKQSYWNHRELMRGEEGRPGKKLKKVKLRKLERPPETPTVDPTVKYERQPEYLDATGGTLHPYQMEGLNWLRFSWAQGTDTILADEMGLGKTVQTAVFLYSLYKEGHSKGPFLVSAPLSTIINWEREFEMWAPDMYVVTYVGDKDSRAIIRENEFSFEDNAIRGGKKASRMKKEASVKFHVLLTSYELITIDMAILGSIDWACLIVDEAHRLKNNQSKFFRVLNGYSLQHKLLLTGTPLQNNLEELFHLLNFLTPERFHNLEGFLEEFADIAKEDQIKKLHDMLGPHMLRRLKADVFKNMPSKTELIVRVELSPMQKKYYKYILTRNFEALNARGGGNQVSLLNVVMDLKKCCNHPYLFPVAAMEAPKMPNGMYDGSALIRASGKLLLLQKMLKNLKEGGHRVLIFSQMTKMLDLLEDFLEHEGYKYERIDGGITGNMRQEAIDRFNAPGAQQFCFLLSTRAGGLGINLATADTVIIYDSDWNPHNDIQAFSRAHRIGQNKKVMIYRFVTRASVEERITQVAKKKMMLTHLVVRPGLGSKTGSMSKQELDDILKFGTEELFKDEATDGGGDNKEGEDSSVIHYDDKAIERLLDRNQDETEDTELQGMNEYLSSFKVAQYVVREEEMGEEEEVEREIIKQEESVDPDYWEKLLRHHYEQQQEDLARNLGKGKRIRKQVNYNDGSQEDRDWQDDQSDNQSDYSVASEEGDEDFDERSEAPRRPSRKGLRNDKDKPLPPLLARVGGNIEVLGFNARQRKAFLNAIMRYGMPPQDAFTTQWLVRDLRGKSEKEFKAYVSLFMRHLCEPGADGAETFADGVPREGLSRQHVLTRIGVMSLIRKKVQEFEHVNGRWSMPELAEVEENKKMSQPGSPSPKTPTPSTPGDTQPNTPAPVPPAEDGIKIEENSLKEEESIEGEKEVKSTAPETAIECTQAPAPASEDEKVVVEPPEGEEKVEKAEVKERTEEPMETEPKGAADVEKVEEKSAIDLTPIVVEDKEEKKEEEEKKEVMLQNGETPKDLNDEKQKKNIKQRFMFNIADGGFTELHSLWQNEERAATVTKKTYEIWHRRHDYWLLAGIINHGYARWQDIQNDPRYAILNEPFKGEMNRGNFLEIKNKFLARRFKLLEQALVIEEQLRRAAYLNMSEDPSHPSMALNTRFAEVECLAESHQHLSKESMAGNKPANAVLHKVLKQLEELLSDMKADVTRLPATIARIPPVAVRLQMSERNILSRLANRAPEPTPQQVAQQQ
Chain of UniProt Q96G28 (Q96G28 whole entry): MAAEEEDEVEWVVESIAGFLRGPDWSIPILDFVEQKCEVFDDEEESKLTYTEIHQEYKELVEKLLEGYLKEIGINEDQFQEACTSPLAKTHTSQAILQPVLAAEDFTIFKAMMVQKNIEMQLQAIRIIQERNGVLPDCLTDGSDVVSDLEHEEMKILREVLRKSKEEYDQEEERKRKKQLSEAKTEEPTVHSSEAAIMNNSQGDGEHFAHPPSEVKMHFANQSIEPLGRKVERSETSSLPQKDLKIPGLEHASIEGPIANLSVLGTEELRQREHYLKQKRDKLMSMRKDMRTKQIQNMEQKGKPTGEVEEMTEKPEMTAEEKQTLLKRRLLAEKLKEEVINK
Chain of UniProt Q8WUX2 (Q8WUX2 whole entry): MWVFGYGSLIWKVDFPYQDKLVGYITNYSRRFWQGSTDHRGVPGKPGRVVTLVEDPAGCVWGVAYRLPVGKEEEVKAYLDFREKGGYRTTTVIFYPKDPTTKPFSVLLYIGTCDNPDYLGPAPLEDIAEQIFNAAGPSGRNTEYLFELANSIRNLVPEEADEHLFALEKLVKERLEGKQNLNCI
Chain of UniProt O15182 (O15182 whole entry): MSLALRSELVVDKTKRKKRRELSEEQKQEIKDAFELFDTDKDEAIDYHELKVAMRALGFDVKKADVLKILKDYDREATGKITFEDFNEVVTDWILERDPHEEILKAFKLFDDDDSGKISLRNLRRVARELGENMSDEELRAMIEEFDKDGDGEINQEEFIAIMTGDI
Chain of UniProt Q96JM3 (Q96JM3 whole entry): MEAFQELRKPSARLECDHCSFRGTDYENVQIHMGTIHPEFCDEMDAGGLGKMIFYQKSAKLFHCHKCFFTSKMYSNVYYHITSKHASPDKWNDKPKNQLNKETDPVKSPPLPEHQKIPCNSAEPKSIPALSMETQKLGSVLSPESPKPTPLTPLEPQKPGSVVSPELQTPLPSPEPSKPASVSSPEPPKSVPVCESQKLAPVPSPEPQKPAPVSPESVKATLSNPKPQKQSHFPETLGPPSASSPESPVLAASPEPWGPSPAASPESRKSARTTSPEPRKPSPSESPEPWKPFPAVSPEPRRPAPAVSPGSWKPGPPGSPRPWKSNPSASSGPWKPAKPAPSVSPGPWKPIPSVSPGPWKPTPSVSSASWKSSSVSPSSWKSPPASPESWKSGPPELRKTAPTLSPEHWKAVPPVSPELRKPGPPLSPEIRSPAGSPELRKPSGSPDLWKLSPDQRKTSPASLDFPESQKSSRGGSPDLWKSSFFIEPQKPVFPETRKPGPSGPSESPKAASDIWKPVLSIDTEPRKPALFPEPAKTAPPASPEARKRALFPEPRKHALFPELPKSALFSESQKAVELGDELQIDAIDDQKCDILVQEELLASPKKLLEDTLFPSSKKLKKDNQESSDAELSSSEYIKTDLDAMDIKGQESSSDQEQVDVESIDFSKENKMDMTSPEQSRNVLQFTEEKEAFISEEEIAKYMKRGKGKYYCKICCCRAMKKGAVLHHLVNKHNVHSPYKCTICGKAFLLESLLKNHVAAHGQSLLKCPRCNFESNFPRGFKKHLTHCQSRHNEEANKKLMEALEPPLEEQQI
Chain of UniProt Q9Y6H1 (Q9Y6H1 whole entry): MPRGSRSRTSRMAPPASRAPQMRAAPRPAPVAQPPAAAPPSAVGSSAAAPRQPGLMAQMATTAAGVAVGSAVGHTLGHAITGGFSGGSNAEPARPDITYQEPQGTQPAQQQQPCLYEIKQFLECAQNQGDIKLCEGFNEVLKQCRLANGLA
Chain of UniProt Q9NX63 (Q9NX63 whole entry): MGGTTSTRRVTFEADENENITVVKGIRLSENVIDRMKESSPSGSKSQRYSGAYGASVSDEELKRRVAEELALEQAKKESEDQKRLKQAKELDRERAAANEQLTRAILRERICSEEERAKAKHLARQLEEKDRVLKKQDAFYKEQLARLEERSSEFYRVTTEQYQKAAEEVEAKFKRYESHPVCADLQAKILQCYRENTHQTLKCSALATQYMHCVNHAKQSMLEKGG
Chain of UniProt Q9Y6K0 (Q9Y6K0 whole entry): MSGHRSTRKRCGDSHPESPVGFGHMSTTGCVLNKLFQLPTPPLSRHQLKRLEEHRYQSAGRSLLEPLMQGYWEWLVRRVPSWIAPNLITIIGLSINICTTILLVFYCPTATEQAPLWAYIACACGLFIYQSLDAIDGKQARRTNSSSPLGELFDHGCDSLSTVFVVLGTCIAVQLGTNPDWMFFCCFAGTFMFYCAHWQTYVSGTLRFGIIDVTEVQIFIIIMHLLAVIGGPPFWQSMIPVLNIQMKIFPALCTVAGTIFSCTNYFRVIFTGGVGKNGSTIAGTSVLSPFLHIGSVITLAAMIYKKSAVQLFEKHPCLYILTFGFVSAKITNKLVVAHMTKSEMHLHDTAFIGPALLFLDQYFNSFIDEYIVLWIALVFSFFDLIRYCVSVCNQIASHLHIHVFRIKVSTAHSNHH
Chain of UniProt P41208 (P41208 whole entry): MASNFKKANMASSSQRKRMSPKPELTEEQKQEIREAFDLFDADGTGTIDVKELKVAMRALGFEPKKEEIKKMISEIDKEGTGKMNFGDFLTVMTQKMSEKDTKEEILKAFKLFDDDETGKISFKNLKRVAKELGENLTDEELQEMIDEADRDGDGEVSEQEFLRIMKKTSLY

Take CEP350 (UniProt Q5VT06): the thermal stability z-score was -0.0541 with potassium arsenate, -0.154 with lipoamide (setting [1]) and -0.182 with lipoamide (arsenate co-treatment: none).

For CEPT1 (UniProt Q9Y6K0), the figures for the thermal stability z-score with potassium arsenate, in the test with lipoamide (setting [1]) and in the test with lipoamide (arsenate co-treatment: none) were 0.959, 0.685 and 0.4, respectively.

As for CERCAM (UniProt Q5T4B2), the thermal stability z-score in the test with potassium arsenate was -0.44; with lipoamide (setting [1]), -0.0616; with lipoamide (arsenate co-treatment: none), -0.543.

CERS2 (UniProt Q96G23): the thermal stability z-score with potassium arsenate is -0.575; in the test with lipoamide (setting [1]) it was -0.901; with lipoamide (arsenate co-treatment: none), -1.12.

As to CETN2 (UniProt P41208), the figures for the thermal stability z-score with potassium arsenate, with lipoamide (setting [1]) and with lipoamide (arsenate co-treatment: none) were 0.798, 0.767 and 0.569, respectively.

CETN3 (UniProt O15182): the thermal stability z-score with potassium arsenate came out at 1.71; in the test with lipoamide (setting [1]), 1.25; with lipoamide (arsenate co-treatment: none), 1.49.

For the target CFAP20 (UniProt Q9Y6A4), the figures for the thermal stability z-score with potassium arsenate, with lipoamide (setting [1]) and with lipoamide (arsenate co-treatment: none) were 1.07, 0.686 and -0.433, respectively.

Consider CFAP36 (UniProt Q96G28), for which the figures for the thermal stability z-score with potassium arsenate, in the test with lipoamide (setting [1]) and with lipoamide (arsenate co-treatment: none) were 0.177, 0.177 and 0.267, respectively.

CFAP97 (UniProt Q9P2B7): the thermal stability z-score in the test with potassium arsenate is -0.864; in the test with lipoamide (setting [1]), -1; in the test with lipoamide (arsenate co-treatment: none) it was -0.518.

Consider CFDP1 (UniProt Q9UEE9), for which the thermal stability z-score with potassium arsenate was -0.21; with lipoamide (setting [1]) it was 0.254; with lipoamide (arsenate co-treatment: none), 0.185.

As to CFL1 (UniProt P23528), the thermal stability z-score in the test with potassium arsenate is -0.362; with lipoamide (setting [1]), 0.501; with lipoamide (arsenate co-treatment: none), 0.449.

In the case of CFL2 (UniProt Q9Y281), the thermal stability z-score in the test with potassium arsenate is -0.466; with lipoamide (setting [1]) it was 0.497; with lipoamide (arsenate co-treatment: none), 0.000804.

For CGGBP1 (UniProt Q9UFW8), the thermal stability z-score with potassium arsenate is -0.0749; with lipoamide (setting [1]) it was -0.266; with lipoamide (arsenate co-treatment: none), -0.574.

With CHAC2 (UniProt Q8WUX2), the thermal stability z-score with potassium arsenate is 0.455; with lipoamide (setting [1]), -0.0361; in the test with lipoamide (arsenate co-treatment: none), 0.0338.

As for CHAF1A (UniProt Q13111), the thermal stability z-score with potassium arsenate is -0.0415; in the test with lipoamide (setting [1]) it was 0.0368; with lipoamide (arsenate co-treatment: none), 0.138.

Consider CHAF1B (UniProt Q13112), for which the thermal stability z-score is 1.29 with potassium arsenate, 1.3 with lipoamide (setting [1]) and 1.08 with lipoamide (arsenate co-treatment: none).

For CHAMP1 (UniProt Q96JM3), the thermal stability z-score was -0.567 with potassium arsenate, -0.202 with lipoamide (setting [1]) and -0.497 with lipoamide (arsenate co-treatment: none).

Consider CHCHD1 (UniProt Q96BP2), for which the thermal stability z-score with potassium arsenate was -0.0935; with lipoamide (setting [1]), 0.43; with lipoamide (arsenate co-treatment: none) it was 0.138.

As to CHCHD2 (UniProt Q9Y6H1), the thermal stability z-score with potassium arsenate is 0.592; with lipoamide (setting [1]) it was 1.56; with lipoamide (arsenate co-treatment: none), 1.34.

As to CHCHD3 (UniProt Q9NX63), the thermal stability z-score with potassium arsenate was 0.417; with lipoamide (setting [1]), 0.334; in the test with lipoamide (arsenate co-treatment: none), 0.581.

Turning to CHCHD4 (UniProt Q8N4Q1), the figures for the thermal stability z-score with potassium arsenate, with lipoamide (setting [1]) and with lipoamide (arsenate co-treatment: none) were -0.236, 0.0185 and 0.497, respectively.

Consider CHCHD6 (UniProt Q9BRQ6), for which the thermal stability z-score was -0.66 with potassium arsenate, 0.209 with lipoamide (setting [1]) and 0.536 with lipoamide (arsenate co-treatment: none).

As to CHD1 (UniProt O14646), the thermal stability z-score was -0.504 with potassium arsenate, -0.0735 with lipoamide (setting [1]) and 0.209 in the test with lipoamide (arsenate co-treatment: none).

On to CHD1L (UniProt Q86WJ1), for which the values for the thermal stability z-score in the test with potassium arsenate, in the test with lipoamide (setting [1]) and with lipoamide (arsenate co-treatment: none) were -0.109, -0.114 and -0.0149, respectively.

Regarding CHD3 (UniProt Q12873), the thermal stability z-score with potassium arsenate is -0.306; with lipoamide (setting [1]), 0.00382; with lipoamide (arsenate co-treatment: none), -0.131.

For the target CHD4 (UniProt Q14839), the thermal stability z-score with potassium arsenate is -0.759; with lipoamide (setting [1]), 0.305; with lipoamide (arsenate co-treatment: none), 0.561.

In the case of CHD6 (UniProt Q8TD26), the thermal stability z-score in the test with potassium arsenate is -0.0483; with lipoamide (setting [1]), -8.33e-05; in the test with lipoamide (arsenate co-treatment: none), -0.00133.

As to CHD8 (UniProt Q9HCK8), the thermal stability z-score in the test with potassium arsenate was 0.147; with lipoamide (setting [1]) it was -0.13; with lipoamide (arsenate co-treatment: none) it was -0.00227.

(Values after the supplement of paper PMC12463676, “Small-molecule dissolution of stress granules by redox modulation benefits ALS models” (Nature Chemical Biology, 2025).)
